Test results: US9198893B2, “Combination antitumor therapy” (GALERA LABS, LLC, priority 2008, dated 2015)

Tests used:
[1] = Activity of superoxide dismutase mimetic toward hydrogen peroxide (selectivity); assay type: biochemical
CT26 mouse colon tumor = test: Mouse colon tumor model, first experiment (CT26 fragments implanted in BALB/c mice); assay type: in vivo; details: SOD mimetic 6 mg/kg IP twice daily from day 6, combined with gemcitabine 80 mg/kg IP on days 6, 9, 12, 15; compared with gemcitabine alone
Experimental: A. In a first experiment, fragments of CT26 mouse colon tumor were implanted in female BALB/c mice and allowed to grow for 6 days to a size of about 110 mg (107-115 mg).
On this day, day 6, mice were administered 6 mg/kg of KM4403 or KM4419 intraperitoneally (IP) and dosing was continued twice daily for the duration of the study.
In some groups, gemcitabine was administered on days 6, 9, 12 and 15 at a dosage of 80 mg/kg, also via IP, 10 minutes after the administration of KM4403 or KM4419.

[2] = combination with interleukin-2; Samlowski et al., Nature Medicine (2003); cited from earlier work
C26 colon tumor = test: Mouse colon tumor model, second experiment (C26 fragments implanted in BALB/c mice); assay type: in vivo; details: KM4419 10 mg/kg or 20 mg/kg twice daily from day 7, combined with gemcitabine 120 mg/kg IP on days 7, 13, 16, both KM4419 dosage levels, FIG. 1
Experimental: B. In a second experiment, fragments of C26 colon tumor were implanted in female BALB/c mice and grown until day 7 at which point they averaged 123 mg.
Groups 1 and 2 (n=8) were given 10 mg/kg or 20 mg/kg of KM4419 twice daily starting at day 7.
In groups 3 and 4 (n=8), gemcitabine was administered at 120 mg/kg or 160 mg/kg IP on days 7, 13 and 16.
In groups 5 and 6 (n=8), both gemcitabine and KM4419 were administered according to the foregoing regimens. Gemcitabine was administered 10 minutes after KM4419 in these groups. The levels of KM4419 were 10 mg/kg and 20 mg/kg, respectively, and the dose of gemcitabine was 120 mg/kg.

[3] = system: human A549 non-small lung carcinoma cells; test: Non-small cell lung cancer tumor model (A549 cells implanted into flanks of BALB/c mice); assay type: in vivo; details: KM4419 30 mg/kg IP on days 9-23, combined with paclitaxel 12.5 mg/kg IP on days 9 and 13; compared with either drug alone; FIG. 2
Experimental: In a manner similar to that of Example 1, human A549 non-small lung carcinoma cells were implanted into the flanks of female BALB/c mice, and the tumors were allowed to grow until day 9. Group 1 was administered only vehicle. Group 2 (n=10) was administered only paclitaxel at 12.5 mg/kg IP on days 9 and 13. In group 3 (n=10), the mice were administered 30 mg/kg of KM4419 IP on days 9-23. In group 4 (n=10), a combination of these protocols was administered.

Molecule: CC(C)c1cc(C(=O)O)c([O-])c(C(C)C)c1.CC(C)c1cc(C(=O)O)c([O-])c(C(C)C)c1.[Cu+2] [CuDIPS, copper [II] diisopropylsalicylate]
- activity toward hydrogen peroxide [1]: significant activity

Molecule: [Cl][Mn-5]1234([Cl])[n+]5c6cccc5C[NH+]1[C@@H]1CCCC[C@H]1[NH+]2CC[NH+]3[C@@H]1CCCC[C@H]1[NH+]4C6 (stereo partly drawn) [KM4403]
- tumor size (CT26 mouse colon tumor): decreased tumor size
- antitumor effect of IL-2 in combination treatment [2]: potentiates the antitumor effect of IL-2

Molecule: [Cl][Mn-5]1234([Cl])[n+]5c6cccc5C[NH+]1[C@H]1CCCC[C@@H]1[NH+]2CC[NH+]3[C@H]1CCCC[C@@H]1[NH+]4C6 (stereo partly drawn) [KM4419]
- tumor recurrence (C26 colon tumor): delayed recurrence
- tumor size (C26 colon tumor; compared with gemcitabine alone): decreased the tumor size more effectively than gemcitabine alone
- tumor size (CT26 mouse colon tumor): decreased tumor size
- effectiveness on tumor growth [3]: more effective than either drug taken alone

Molecule: mangafodipir
- activity toward hydrogen peroxide [1]: significant activity

Molecule: manganese [III] tetrakis-(5,10,15,20)-benzoic acid porphyrin [MnTBAP]
- activity toward hydrogen peroxide [1]: significant activity
